These results are taken from patent US12138252B2, “Multikinase inhibitors of VEGF and TGF beta and uses thereof” (AIVIVA BIOPHARMA, INC., priority 2017, dated 2024).

Structures are written as SMILES.

For one experiment, the system named is rabbit ear wound. Description: Histopathology of rabbit ear wound (neovascularization, fibrosis, re-epithelialization). The format is in vivo, New Zealand white rabbits. More on the design: key to Total Score: aggregated total of severity grades for microscopic findings; key to Neovascularization / Re-epithelialization: five-step severity grade (minimal, mild, moderate, marked, severe). Conditions: intradermal 1%; for average total score of test wounds lower than untreated wounds by: difference to untreated control; for Total Score / Fibrosis/Collagen / Neovascularization / Re-epithelialization: treated mean, Day 43; for Total Score: aggregation of microscopic findings; for Fibrosis/Collagen / Neovascularization / Re-epithelialization: histology severity grade; for angiogenesis / neovascularization compared with untreated wounds (words) / fibrosis compared with untreated wounds (words): histopathology; for scar formation compared with control sites: overall. As to the method:
(§1) The objective of this study was to examine the effect of test compounds on wound healing and TGF beta expression after dermal injury in a rabbit ear hypertrophic scar model.
(§2) In New Zealand white rabbits, maintained under a surgical plane of anesthesia, trauma stimulation of the skin on the ventral surface of both ears is initiated on Day 1. Trauma sites are evaluated on Days 8, 15, 22, 29, 36, and 43. On days 15 and 29, each site is dosed with test compounds (e.g., 1% w/w, 100 μl) by intradermal or intralesional injections.
At necropsy, each treatment site was harvested and preserved for hematoxylin and […] and Mason's trichrome stainings. Each lesion was examined histologically and graded for neovascularization, fibrosis and re-epithelialization using a five-step/severity grading system (minimal, mild, moderate, marked, and severe). The average total score is an aggregation of these microscopic findings relating to an inflammatory response.

Experiment [1] has as its system LL37-induced inflammation. Briefly: LL37-induced dermal inflammation model in mice, histopathology and CD4/CD8 immunostaining. Format: in vivo. To be noted: intradermal LL37 induction, single intradermal injection 1.6 mg, FIG. 2. As to the method:
(§3) In our study, mice were injected subcutaneously with 40 μL of LL-37 (3.3 mg/mL) to induce inflammatory reactions. Immediately following the LL-37 injection, axitinib, nintedanib, and lenvatinib were individually administered as a single intradermal injection (1.6 mg). LL-37 injection was repeated every 12 hours for a total of 4 injections. Endotoxin-free water and dexamethasone (3 mg/kg by intraperitoneal injection, twice), respectively, were used as negative and positive control groups.
At 48 hours after the initial LL-37 injection, the dorsal skin was photographed, and the severity of skin lesions were scored for redness and measured for areas of involvement.
(§4) Mice were then anaesthetized, and tissue samples of lesion sites were excised and fixed for H&E stainings and immunohistochemical analysis. Markers for inflammation (CD4 and CD8) were determined using specific antibodies. TGF beta levels are measured by mRNA expression using qPCR.
The tissue samples were analyzed for inflammation characteristics. Histopathology endpoints included inflammation, and CD4+ and CD8+ T-lymphocyte immunostaining. For inflammation scores, tissues were examined histologically and scored for inflammatory cell infiltrate.

The next experiment deals with TGF-beta 1. Briefly: Dermal TGFb1 levels (ELISA) after linear incisional wound in minipigs. The format is in vivo, Gottingen Minipigs. To be noted: minipig incisional wound, approximately 16 mg intradermal once, biopsies days 4, 7, 9, ELISA, FIG. 5. The text has this: The purpose of this study was to evaluate the topical effects of axitinib, nintedanib, sorafenib and lenvatinib when administered via intradermal injection to the dorsal skin along linear incisions of minipigs. Linear incisional wound was made to elicit inflammatory and wound healing process in the skin. After dosing, animals were observed postdose for 9 days to assess the levels of TGFb1 expressions in the skin.
Three male Gottingen Minipigs® dosed once via intradermal injection along the edges of each of the linear incision wound sites for each animal (wounds on the dorsum, perpendicular to the spine, approximately 3 cm in length and 3 cm distance from the spine). Each incisional wound received approximately 16 mg of the test compound intradermally once along both sides of the linear wound.
On days of 4, 7, and 9 post-dosing, one 4 mm dermal punch biopsy was collected for each incisional wound and processed for TGF-beta 1 analysis with ELISA, using a commercial kit (e.g., the kit from Thermo Fisher or other vendors).

The next experiment has as its system TGF beta1 mRNA. Description: TGF beta1 mRNA expression (qRT-PCR) in rabbit ear hypertrophic scar model. To be noted: 1% w/w 100 μl intradermal on days 15 and 29, Day 43, FIG. 6. Format: in vivo, New Zealand white rabbits. As to the method:
as §1, §2
Animals are euthanized on Day 43, and the trauma sites are harvested and frozen for TGF beta analysis using quantitative RT-PCR (qRT-PCR) (e.g., A. K. Johnson et al., Dev. Comp. Immunol., 2006; 30(5): 473-84). TGF beta1 mRNA expression levels in treated trauma samples are compared to the expression level in the untreated trauma sample.

The next experiment relates to TGFb1 mRNA. Description: TGFb1 mRNA expression (qPCR) in skin of mice after LL-37 challenge. The format is in vivo. To be noted: LL37 induced, single intradermal injection 1.6 mg, FIG. 1. As for the experimental part: as §3, §4

For the compound `CNC(=O)c1ccccc1Sc1ccc2c(/C=C/c3ccccn3)n[nH]c2c1` [axitinib], in the experiment on rabbit ear wound, the “average total score of test wounds lower than untreated wounds by” value came out at 1.4, the “Total Score” value was 4.6, the Fibrosis/Collagen amounted to 3.3 and the Neovascularization came out at 1. Moreover, the Re-epithelialization in the experiment on rabbit ear wound amounted to 0.3.
Turning to `COc1cc2nccc(Oc3ccc(NC(=O)NC4CC4)c(Cl)c3)c2cc1C(N)=O` [lenvatinib], the “inflammation score (inflammatory cell infiltrate)” value in experiment [1] was “prominent reductions”. Further, the “suppression of TGF beta 1 expression in skin” value (from here on “suppression”) with TGF-beta 1 is on record as “very effective”. Further, in the experiment on TGF beta1 mRNA, the “mean folds of TGF beta mRNA expression vs untreated wound sample” value (from here on “mean folds of TGF beta mRNA expression”) is “lower than the expression level in the untreated wound sample”. For the same compound, in the experiment with TGFb1 mRNA (48 hours), the “TGFb1 mRNA expression relative to LL37 alone (without treatment)” value worked out at 79%. The “TGFb-1 mRNA expression among all treatment groups” value in the experiment on TGFb1 mRNA was “lowest TGFb-1 mRNA expression”.
For `COC(=O)c1ccc2c(c1)NC(=O)/C2=C(\Nc1ccc(N(C)C(=O)CN2CCN(C)CC2)cc1)c1ccccc1` [nintedanib], the “inflammation score (inflammatory cell infiltrate)” value in experiment [1] is reported as “prominent reductions”. Moreover, the “suppression” value in the experiment with TGF-beta 1 is reported as “very effective”. Further, the “mean folds of TGF beta mRNA expression” value in the experiment with TGF beta1 mRNA is listed as “lower than the expression level in the untreated wound sample”. Further, in the experiment on rabbit ear wound, the “average total score of test wounds lower than untreated wounds by” value worked out at 1.5; the “angiogenesis / neovascularization compared with untreated wounds (words)” value is on record as “decreased angiogenesis”; the “fibrosis compared with untreated wounds (words)” value is “decreased angiogenesis and fibrosis”; the “scar formation compared with control sites” value is “less scar formation”. In the experiment with rabbit ear wound, the “Total Score” value is reported as 4.5, the Fibrosis/Collagen amounted to 3, the Neovascularization was 1 and the Re-epithelialization turned out to be 0.5. Also, in the experiment on rabbit ear wound (listed as Nintedanib), the “angiogenesis / neovascularization compared with untreated wounds (words)” value was “much less neovascularization” and the “fibrosis compared with untreated wounds (words)” value is given as “about the same fibrosis”.
Turning to `CNC(=O)c1cc(Oc2ccc(NC(=O)Nc3ccc(Cl)c(C(F)(F)F)c3)cc2)ccn1` [sorafenib], in the experiment with TGF-beta 1, the “suppression” value was “not as effective”. For the same compound, in the experiment on TGF beta1 mRNA, the “mean folds of TGF beta mRNA expression” value was “lower than the expression level in the untreated wound sample”. In addition, in the experiment on rabbit ear wound, the “angiogenesis / neovascularization compared with untreated wounds (words)” value is “do not show any reduction in angiogenesis”; the “fibrosis compared with untreated wounds (words)” value is “similar, or increased fibrosis”; the “scar formation compared with control sites” value was “does not appear to have reduced scar formation”; the “Total Score” value was 5.8. Besides, in the experiment on rabbit ear wound, the Fibrosis/Collagen was determined as 2.5, the Neovascularization is listed as 3 and the Re-epithelialization was found to be 0.3. For the same compound, the “angiogenesis / neovascularization compared with untreated wounds (words)” value in the experiment with rabbit ear wound (listed as Sorafenib) is reported as “slightly increased neovascularization”.
